Among the data in patent US9434711B2 (Janssen Pharmaceutica, NV, priority 2007, dated 2016) are IC50 and inhibition values, retold here.

In general, IC50 refers to the concentration needed to halve the response being measured.

The test addresses canine TRPM8 (Canis lupus familiaris, UniProt Q1A7N1). The test is described as follows: In Vitro Canine TRPM8 Functional Assay (Ca2+ fluorescence, icilin activation). It counts as cell-based. To be noted: for inhibition at 0.5 µM: compound at 0.5 μM, read-out: % Inh @ 0.5. How it is done: The functional activity of compounds of the formula (I) was determined by measuring changes in intracellular calcium concentration using a Ca^2+-sensitive fluorescent dye. The changes in fluorescent signal were monitored by a fluorescence plate reader, either a FLIPR™ (Molecular Devices) or FDSS (Hamamatsu).
At 24 hrs prior to assay, HEK293 cells stably expressing canine TRPM8 were seeded in culture medium in black wall, clear-base poly-D-lysine coated 384-well plates (BD Biosciences, NJ, USA) and grown overnight in 5% CO2 at 37° C. On assay day, growth media was removed and cells were loaded with Calcium 3 Dye (Molecular Devices) for 35 min at 37° C., under 5% CO2 and then for 25 min at room temperature and atmosphere. Subsequently, cells were tested for agonist-induced increases in intracellular Ca^2+ levels using FLIPR™ or FDSS. Cells were challenged with a compound of the Formula (I) (at varying concentrations) and intracellular Ca^2+ was measured for 5 min prior to the addition of icilin to all wells to achieve a final concentration that produces approximately an 80% maximal response. EC50 or IC50 values for compounds of the present invention were determined from eight-point dose-response studies. Curves were generated using the average of quadruplicate wells for each data point.

[1] abbreviates: HEK293 cells stably expressing canine TRPM8, icilin activation, eight-point dose-response, read-out: IC50.
Setting [2] is: compound at 0.2 μM, canine TRPM8, icilin activation, read-out: % Inh @ 0.2.
[3] abbreviates: canine TRPM8, icilin activation.

Like-named read-outs stand apart in the source and are kept apart here.

canine TRPM8, sequence (Q1A7N1 1-1104): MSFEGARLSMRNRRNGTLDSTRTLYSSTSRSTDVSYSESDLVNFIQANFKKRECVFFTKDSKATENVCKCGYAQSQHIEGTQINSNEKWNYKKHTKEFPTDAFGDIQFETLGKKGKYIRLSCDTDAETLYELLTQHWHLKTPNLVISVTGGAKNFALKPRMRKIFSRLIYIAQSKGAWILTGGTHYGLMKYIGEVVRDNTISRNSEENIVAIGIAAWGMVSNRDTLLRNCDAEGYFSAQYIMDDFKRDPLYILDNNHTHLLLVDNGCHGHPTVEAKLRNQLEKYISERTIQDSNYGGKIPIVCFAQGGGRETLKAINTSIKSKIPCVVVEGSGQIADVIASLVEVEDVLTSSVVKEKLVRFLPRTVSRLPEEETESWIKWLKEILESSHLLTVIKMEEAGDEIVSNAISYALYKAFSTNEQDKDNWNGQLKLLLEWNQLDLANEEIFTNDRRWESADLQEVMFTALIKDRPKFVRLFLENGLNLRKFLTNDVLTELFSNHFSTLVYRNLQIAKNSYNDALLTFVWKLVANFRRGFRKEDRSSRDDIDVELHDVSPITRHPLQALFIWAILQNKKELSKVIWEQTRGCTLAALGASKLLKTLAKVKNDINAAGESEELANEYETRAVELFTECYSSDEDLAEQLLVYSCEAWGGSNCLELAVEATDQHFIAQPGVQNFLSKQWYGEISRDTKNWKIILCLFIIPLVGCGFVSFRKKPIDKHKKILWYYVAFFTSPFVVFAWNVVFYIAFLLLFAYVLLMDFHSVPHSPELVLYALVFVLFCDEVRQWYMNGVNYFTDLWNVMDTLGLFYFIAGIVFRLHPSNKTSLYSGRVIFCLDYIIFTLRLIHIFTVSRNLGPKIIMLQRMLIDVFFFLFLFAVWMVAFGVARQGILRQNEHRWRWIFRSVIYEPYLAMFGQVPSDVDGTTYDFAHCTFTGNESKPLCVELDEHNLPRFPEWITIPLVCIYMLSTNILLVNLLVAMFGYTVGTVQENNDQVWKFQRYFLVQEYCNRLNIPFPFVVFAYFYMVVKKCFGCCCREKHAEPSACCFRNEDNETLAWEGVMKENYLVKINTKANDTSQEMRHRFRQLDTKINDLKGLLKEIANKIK

Turning to `Cc1c(N(Cc2ccc(F)c(C(F)(F)F)c2)S(=O)(=O)c2ccc3c(c2)OCCN3C)sc2ccccc12` [Compound 68, N-(4-Fluoro-3-trifluoromethyl-benzyl)-N-(3-methyl-benzo[b]thiophen-2-yl)-4-methyl-3,4-dihydro-2H-benzo[1,4]oxazine-7-sulfonamide], the IC50 under setting [1] stood at 2 nM. Also, under setting [2], the inhibition at 0.2 µM stood at 99%.
As to `Cc1c(N(Cc2ccc(F)c(C(F)(F)F)c2)S(=O)(=O)c2ccc(-c3csnn3)cc2)sc2ccccc12` [Compound 69, N-(4-Fluoro-3-trifluoromethyl-benzyl)-N-(3-methyl-benzo[b]thiophen-2-yl)-4-[1,2,3]thiadiazol-4-yl-benzenesulfonamide], under setting [1], the concentration for half-maximal inhibition (IC50) was found to be 3 nM. Further, the inhibition at 0.2 µM under setting [2] amounted to 96%.
Take `Cc1c(N(Cc2ccc(F)c(C(F)(F)F)c2)S(=O)(=O)c2cccc(Oc3ccccc3)c2)sc2ccccc12` [Compound 70, N-(4-Fluoro-3-trifluoromethyl-benzyl)-N-(3-methyl-benzo[b]thiophen-2-yl)-3-phenoxy-benzenesulfonamide]: under setting [1], the half-maximal inhibitory concentration (IC50) worked out at 7 nM. Moreover, under setting [2], the inhibition at 0.2 µM was found to be 99%.
The molecule `COC(=O)CCS(=O)(=O)N(Cc1ccc(F)c(C(F)(F)F)c1)c1sc2ccccc2c1C` [Compound 71] registered an IC50 of 18 nM. Moreover, the inhibition at 0.2 µM (read-out: % Inh @ 0.2 (μM)) was 98%.
For `Cc1nc(O)nc(O)c1S(=O)(=O)N(Cc1ccc(F)c(C(F)(F)F)c1)c1sc2ccccc2c1C` [Compound 72, N-(3-Methyl-benzo[b]thiophen-2-yl)-N-(4-fluoro-3-trifluoromethylbenzyl)-(2,4-dihydroxy-6-methyl-pyrimidine-5-yl)sulfonamide], the IC50 under setting [1] is 26 nM. Moreover, the inhibition at 0.2 µM under setting [2] amounted to 99%.
Regarding `Cc1c(N(Cc2ccc(F)c(C(F)(F)F)c2)S(=O)(=O)c2cccc3c2CN(C(=O)C(F)(F)F)CC3)sc2ccccc12` [Compound 73, N-(4-Fluoro-3-trifluoromethyl-benzyl)-N-(3-methyl-benzo[b]thiophen-2-yl)-2-(2,2,2-trifluoro-acetyl)-1,2,3,4-tetrahydro-isoquinoline-8-sulfonamide], under setting [2], the inhibition at 0.2 µM came out at 24%.
On to `Cc1nn(C)c(C)c1S(=O)(=O)N(Cc1ccc(F)c(C(F)(F)F)c1)c1sc2ccccc2c1C` [Compound 74, N-(4-Fluoro-3-trifluoromethyl-benzyl)-N-(3-methyl-benzo[b]thiophen-2-yl)-1,3,5-trimethyl-1H-pyrazole-4-sulfonamide], for which the half-maximal inhibitory concentration (IC50) under setting [1] was 21 nM. Moreover, under setting [2], the inhibition at 0.2 µM was 97%.
Turning to `Cc1nc(C)c(S(=O)(=O)N(Cc2ccc(F)c(C(F)(F)F)c2)c2sc3ccccc3c2C)s1` [Compound 75, N-(4-Fluoro-3-trifluoromethyl-benzyl)-N-(3-methyl-benzo[b]thiophen-2-yl)-2,4-dimethyl-thiazole-5-sulfonamide], the IC50 under setting [1] turned out to be 18 nM. In addition, the inhibition at 0.2 µM under setting [2] was 98%.
In the same order, the values of `Cc1c(N(Cc2ccc(F)c(C(F)(F)F)c2)S(=O)(=O)c2ccc(Cl)nc2)sc2ccccc12` [Compound 76, N-(4-Fluoro-3-trifluoromethyl-benzyl)-N-(3-methyl-benzo[b]thiophen-2-yl)-6-chloro-pyridine-3-sulfonamide] are 21 nM and 95%.
Turning to `Cc1c(N(Cc2ccc(F)c(C(F)(F)F)c2)S(=O)(=O)c2cccnc2Cl)sc2ccccc12` [Compound 77, N-(4-Fluoro-3-trifluoromethyl-benzyl)-N-(3-methyl-benzo[b]thiophen-2-yl)-2-chloro-pyridine-3-sulfonamide], under setting [1], the concentration for half-maximal inhibition (IC50) was 22 nM. For the same molecule, under setting [2], the inhibition at 0.2 µM is 97%.
On to `O=S(=O)(c1ccsc1)N(Cc1ccc(F)c(C(F)(F)F)c1)c1cc2ccccc2s1` [Compound 78, N-(Benzo[b]thiophen-2-yl)-N-(4-fluoro-3-trifluoromethyl-benzyl)-thiophene-3-sulfonamide], for which, under setting [1], the IC50 is 22.5 nM. Also, the inhibition at 0.2 µM under setting [2] is 102%.
As to `Cc1c(N(Cc2ccc(F)c(C(F)(F)F)c2)S(=O)(=O)c2cccc3c2CNCC3)sc2ccccc12` [Compound 79, N-(4-Fluoro-3-trifluoromethyl-benzyl)-N-(3-methyl-benzo[b]thiophen-2-yl)-1,2,3,4-tetrahydro-isoquinoline-8-sulfonamide], the inhibition at 0.2 µM under setting [2] is 69%.
`O=S(=O)(c1ccccc1)N(CC1CCCCC1)c1sc2ccccc2c1Cl` [Compound 80, N-(3-Chloro-benzo[b]thiophen-2-yl)-N-(cyclohexylmethyl)-benzenesulfonamide]: the IC50 under setting [1] worked out at 29 nM. Under setting [3], the inhibition at 0.5 µM is 98%.
`CC(C)(C)OCCN(c1sc2ccccc2c1Cl)S(=O)(=O)c1ccccc1` [Compound 81, N-(2-tert-Butoxy-ethyl)-N-(3-chloro-benzo[b]thiophen-2-yl)-benzenesulfonamide]: the IC50 under setting [1] was 15 nM. The inhibition at 0.5 µM under setting [3] was 99%.
For `O=C1CCCN1CCN(c1sc2ccccc2c1Cl)S(=O)(=O)c1ccccc1` [Compound 82, N-(3-Chloro-benzo[b]thiophen-2-yl)-N-[2-(2-oxo-pyrrolidin-1-yl)-ethyl]-benzenesulfonamide], the IC50 under setting [1] was 319 nM. Moreover, the inhibition at 0.5 µM under setting [3] was 87%.
As for `CCCCN(c1sc2ccccc2c1Cl)S(=O)(=O)c1ccccc1` [Compound 83, N-(Butyl)-N-(3-chloro-benzo[b]thiophen-2-yl)-benzenesulfonamide], the IC50 under setting [1] was determined as 48 nM. The inhibition at 0.5 µM under setting [3] is 101%.
For `C=CCN(c1sc2ccccc2c1Cl)S(=O)(=O)c1ccccc1` [Compound 84, N-(Allyl)-N-(3-chloro-benzo[b]thiophen-2-yl)-benzenesulfonamide], in that order: 35 nM and 100%.
For `O=S(=O)(c1ccccc1)N(CCc1ccccc1)c1sc2ccccc2c1Cl` [Compound 85, N-(3-Chloro-benzo[b]thiophen-2-yl)-N-(phenethyl)-benzenesulfonamide], under setting [3], the inhibition at 0.5 µM stood at 100%.
As for `CC(C)(C)OC(=O)NCCN(c1sc2ccccc2c1Cl)S(=O)(=O)c1ccccc1` [Compound 86, N-(3-Chloro-benzo[b]thiophen-2-yl)-N-[2-(carbo-tert-butoxyamino)ethyl]-benzenesulfonamide], under setting [1], the 50% inhibitory concentration (IC50) stood at 53 nM. For the same molecule, the inhibition at 0.5 µM under setting [3] came out at 101%.
For the molecule `CN(C)CCN(c1sc2ccccc2c1Cl)S(=O)(=O)c1ccccc1` [Compound 87, N-(3-Chloro-benzo[b]thiophen-2-yl)-N-(2-dimethylamino-ethyl)-benzenesulfonamide], the half-maximal inhibitory concentration (IC50) under setting [1] was found to be 170 nM. Under setting [3], the inhibition at 0.5 µM was 94%.
For `CS(=O)(=O)CCN(c1sc2ccccc2c1Cl)S(=O)(=O)c1ccccc1` [Compound 88, N-(3-Chloro-benzo[b]thiophen-2-yl)-N-(2-methanesulfonyl-ethyl)-benzenesulfonamide], in that order: 261 nM and 88%.
For the molecule `CC(C)(C)OC(=O)N1CCCC1CN(c1sc2ccccc2c1Cl)S(=O)(=O)c1ccccc1` (stereo not drawn) [Compound 89, N-(3-Chloro-benzo[b]thiophen-2-yl)-N-{[1-(carbo-tert-butoxy)pyrrolidin-2-yl]-methyl}-benzenesulfonamide], under setting [3], the inhibition at 0.5 µM is 96%.
As for `CC(C)(C)OC(=O)N1CCC(CN(c2sc3ccccc3c2Cl)S(=O)(=O)c2ccccc2)CC1` [Compound 90, N-(3-Chloro-benzo[b]thiophen-2-yl)-N-{[1-(carbo-tert-butoxy)piperidin-4-yl]-methyl}-benzenesulfonamide], the half-maximal inhibitory concentration (IC50) under setting [1] is 21 nM. The inhibition at 0.5 µM under setting [3] worked out at 99%.
